The source of these data is PubChem BioAssay (NCI).

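Compound exposure: 48 hours, 5 concentrations, 96-well plates. GI50 marks 50% less growth. The concentration for full growth arrest is given as TGI.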

Some test systems named below: U251 CNS; HT29 colon; UACC-62 melanoma; ACHN renal; MDA-N; MCF7 breast; SK-MEL-2 melanoma; EKVX NSCLC; SK-OV-3 ovarian.
What all share (experiment): NCI-60 cell line screen, 48 h

In the case of `CC(=O)OCC(=O)O[C@@H]1[C@H]2[C@@H](OC(=O)c3ccccc3)[C@@H](C)C[C@]2(O)[C@H](OC(C)=O)[C@@]2(C)C[C@]1(OC(C)=O)C[C@H]1C(=O)C(C)(C)[C@@H](OC(C)=O)[C@@H]12`, the TGI with U251 CNS, with HT29 colon, in the experiment with UACC-62 melanoma, in the experiment with ACHN renal, in the experiment on MDA-N and with MCF7 breast was above 25 µM in each case. Besides, the TGI in the experiment with SK-MEL-2 melanoma, in the experiment with EKVX NSCLC and in the experiment on SK-OV-3 ovarian was above 25 µM throughout.
Take `CCCCCCCCCCCCNC(=O)CCC(NC(=O)c1ccc(N(C)Cc2cnc3nc(N)nc(N)c3n2)cc1)C(=O)NCCCCCCCCCCCC` (configuration not stated): the TGI with U251 CNS was 24.7 µM; in the experiment on HT29 colon, above 100 µM; in the experiment on UACC-62 melanoma, above 100 µM; in the experiment on ACHN renal, above 100 µM; in the experiment with MDA-N, above 100 µM; in the experiment on MCF7 breast it was above 100 µM. The TGI with SK-MEL-2 melanoma and in the experiment with EKVX NSCLC was above 100 µM each time.
With `O=P1(C(O)/C=C/c2ccccc2)N(Cc2ccccc2)[C@@H]2CCCC[C@H]2N1Cc1ccccc1` (some centres not stated), the TGI in the experiment on U251 CNS was determined as 16.5 µM; with HT29 colon it was 21.5 µM; in the experiment with UACC-62 melanoma it was 21.2 µM; in the experiment with ACHN renal, 37.1 µM; in the experiment on MDA-N, 18.2 µM; in the experiment on MCF7 breast, 15.1 µM. Further, the TGI is 6.17 µM in the experiment on SK-MEL-2 melanoma, 35.9 µM in the experiment with EKVX NSCLC and above 100 µM in the experiment on SK-OV-3 ovarian.
`C=C(C)[C@H]1CC(=O)/C(C)=C\CC/C(C)=C/CC[C@@]2(C)O[C@@H]2C1`: the TGI is 49.8 µM in the experiment on U251 CNS; 33.7 µM in the experiment with HT29 colon; 26.2 µM with UACC-62 melanoma; 87.3 µM with ACHN renal; 94.4 µM in the experiment with MDA-N; above 100 µM in the experiment with SK-MEL-2 melanoma. The compound also had a TGI with SK-OV-3 ovarian of 59 µM.
Consider `O=C1/C(=C/c2ccc(Cl)cc2)CCCc2ccc(F)cc21`, for which the GI50 in the experiment on U251 CNS is 13.4 µM; with HT29 colon, 24.2 µM; in the experiment on UACC-62 melanoma it was 16.1 µM; in the experiment on ACHN renal, 27.8 µM; in the experiment on MCF7 breast, 8.35 µM; in the experiment with EKVX NSCLC it was 27.9 µM. In addition, the GI50 in the experiment on SK-OV-3 ovarian is 24.7 µM. For the same compound, the TGI was 52.6 µM in the experiment on U251 CNS; above 100 µM with HT29 colon; 47 µM with UACC-62 melanoma; 68.5 µM in the experiment on ACHN renal; above 100 µM in the experiment on MCF7 breast; 61 µM in the experiment on EKVX NSCLC. In the experiment with SK-OV-3 ovarian, the TGI is 69.4 µM.
In the case of `Cc1cc(OCc2nnc3sc(NC(=O)c4ccccc4)nn23)ccc1Cl`, the TGI in the experiment on U251 CNS was above 100 µM; with HT29 colon, above 100 µM; in the experiment with UACC-62 melanoma, above 100 µM; with ACHN renal, 42.9 µM; in the experiment on MCF7 breast, above 100 µM; with SK-MEL-2 melanoma it was 80.5 µM. The TGI with EKVX NSCLC is 89.7 µM; in the experiment with SK-OV-3 ovarian, above 100 µM.
On to `CCOc1ccc(NCC2CC/C(=C\C=C\c3ccccc3)C2=O)cc1` (configuration not stated), for which the TGI in the experiment on U251 CNS was 35.5 µM; in the experiment with HT29 colon it was 30.3 µM; in the experiment on UACC-62 melanoma, 54.2 µM; with ACHN renal, above 92.2 µM; with MCF7 breast, 12.3 µM; in the experiment on SK-MEL-2 melanoma, above 100 µM. For the same compound, the TGI in the experiment on EKVX NSCLC is above 86.2 µM; in the experiment with SK-OV-3 ovarian it was above 100 µM.
As for `COc1cc2c3c(cc(Cl)nc3c1OC)C(=O)C(=O)N2`, the TGI in the experiment on U251 CNS was determined as 30.3 µM; in the experiment on HT29 colon it was 41.4 µM; in the experiment on UACC-62 melanoma, 18.1 µM; in the experiment with ACHN renal, 27.9 µM; with MCF7 breast, 4.58 µM; in the experiment on SK-MEL-2 melanoma it was 27.6 µM. For the same compound, the TGI with EKVX NSCLC is 11.9 µM; in the experiment on SK-OV-3 ovarian it was 33.3 µM.
For the compound `CC(C)(C)c1cc(/C=C2/NC(=O)NC2=O)cc(C(C)(C)C)c1O`, the TGI with U251 CNS came out at 25.8 µM; in the experiment with HT29 colon, 31.7 µM; in the experiment with UACC-62 melanoma it was 30.5 µM; in the experiment with ACHN renal it was 24.1 µM; with MCF7 breast, 29.9 µM; in the experiment with SK-MEL-2 melanoma, 27.2 µM. Moreover, the figures for the TGI in the experiment with EKVX NSCLC and with SK-OV-3 ovarian were 24 µM and 32 µM, respectively.
Consider `CCCCCCc1cc2cc(-c3csc(-c4ccc(OC)cc4)n3)c(=O)oc2cc1O`, for which the TGI in the experiment with U251 CNS is 18.7 µM; in the experiment on HT29 colon it was above 100 µM; in the experiment on UACC-62 melanoma, 24.6 µM; with ACHN renal, 25.1 µM; with MCF7 breast it was 53.2 µM; with SK-MEL-2 melanoma, 32 µM. Moreover, the TGI in the experiment on EKVX NSCLC is 45.1 µM; in the experiment on SK-OV-3 ovarian it was 33.1 µM.
With `C#CCOCC12C=CC(O1)C1COC(=O)C12` (configuration not stated), the TGI in the experiment with U251 CNS, in the experiment on HT29 colon, in the experiment on UACC-62 melanoma, with ACHN renal, with MDA-N and in the experiment with EKVX NSCLC was above 100 µM throughout. The same compound displayed a TGI in the experiment with SK-OV-3 ovarian above 100 µM.
As for `O=c1c(-c2ccccc2)c(SCCN2CCCCCC2)n(-c2ccccc2)c(=S)n1-c1ccccc1`, the TGI with UACC-62 melanoma is above 100 µM; in the experiment on ACHN renal it was above 100 µM; with MCF7 breast it was above 100 µM; in the experiment on EKVX NSCLC, 35.7 µM; in the experiment with SK-OV-3 ovarian, above 100 µM.
As to `CCN1CCN(Cc2ccc(NC(=O)Nc3ccc(-n4ccc5c(NC(=O)c6ccccc6)nccc54)cc3)cc2C(F)(F)F)CC1`, the GI50 in the experiment on ACHN renal is 0.907 µM; with MCF7 breast it was 0.756 µM; in the experiment on SK-MEL-2 melanoma, 3.62 µM; in the experiment with SK-OV-3 ovarian, 1.8 µM. Further, the TGI in the experiment on ACHN renal is 2.11 µM; with MCF7 breast it was 2.08 µM; in the experiment with SK-MEL-2 melanoma, above 100 µM; in the experiment with SK-OV-3 ovarian it was 10.5 µM.
In the case of `CNC(=S)NNc1ncnc2c1c(-c1ccc(Cl)cc1)cn2-c1ccc(C)cc1`, the TGI with U251 CNS stood at 24.1 µM; in the experiment with HT29 colon, 29.8 µM; in the experiment on UACC-62 melanoma, 40.7 µM; with ACHN renal, 22.8 µM; in the experiment on MDA-N, 28 µM; with SK-MEL-2 melanoma, 27.7 µM. In addition, the figures for the TGI in the experiment with EKVX NSCLC and in the experiment on SK-OV-3 ovarian were 28.8 µM and 28.9 µM, respectively.
For `Cc1cnc2[nH]c(-c3cccc(F)c3)cc(=O)c2c1`, the TGI in the experiment on U251 CNS was above 100 µM; in the experiment with HT29 colon, 0.806 µM; in the experiment with UACC-62 melanoma, above 100 µM; in the experiment with ACHN renal, above 100 µM; with MDA-N, 0.027 µM; in the experiment with EKVX NSCLC, above 100 µM. In addition, the TGI in the experiment on SK-OV-3 ovarian was above 100 µM.
